Reference: PMC5131364, “Pharmacologic modulation of RORγt translates to efficacy in preclinical and translational models of psoriasis and inflammatory arthritis” (Scientific Reports, 2016)

Columns and labels:
human CCR6+ T cells = assay: Human CCR6+ cells under Th1 differentiation condition; type: cell-based; details: Th1 polarization conditions
Description: Mouse CD4+ T cell in vitro Th1 differentiation
Total CD4+ T cells were isolated from splenocytes of C57/BL6 mice (Chareles River Labrotory) using a CD4+ T cell isolation kit (Miltenyl Biotec, Auburn, CA), following the manufacturer’s instructions. Cells were resuspended in culture medium (described in Method section of Th17 differentiation) and were added to 96‐well plates at 2x10^5 per well. Titrated JNJ‐54271074 was added to each well at final DMSO concentration of 0.2%. Cells were incubated for 1 hour, after which Th1 cell differentiation medium was added with final concentrations of 1 µg/ml anti‐CD3, 5 µg/mL anti‐CD28 (BD Pharmingen, San Diego, CA), 10 µg/ml anti‐IL4, 10 ng/mL IL‐12, (R&D Systems, Minneapolis, MN). Cells were cultured at 37 °C and 5% CO2 for 3 days. Supernatants were collected and the accumulated cytokines in culture were measured by ELISA kits (R&D Systems, Minneapolis, MN) following manufacturers' instructions.
IL‐23 induced IL‐17A and IL‐22 production in mouse splenocytes splenocytes were isolated from C57/BL6 mice and resuspended in medium and cultured in 96‐well plates at […] per 100 µL per well. Titrated JNJ‐54271074 in DMSO were added into each well and cells were incubated for 1 hour, then medium containing IL‐23 and IL‐2 (R&D systems) was added to each well at final concentration of 1 ng/mL and 10 U/ml, respectively. Cells were cultured at 37 °C and 5% CO2 for 4 days. Supernatants were collected and the accumulated cytokines in culture were measured by ELISA according to the manufacturer’s instructions (IL‐17A kit from R&D systems, and IL‐22 from Biolegend San Diego).
Human CCR6+ cells in vitro culture without activation or under Th1 differentiation condition Human CCR6+ cells were isolated as described in Method. For experiment without activation, cells were cultured with recombinant IL‐7 (R&D) at final concentration of 10 ng/ml in the presence of 1 µM JNJ‐ 54271074 for 4 days before intracellular staining. […]

PBMC from RA patients = assay: IL-17A/IL-22 production from PBMC of rheumatoid arthritis patients; type: cell-based, human; details: anti-CD3/anti-CD28 plus IL-1β and IL-23, 3 days
Description: Frozen PBMCs of healthy and rheumatoid arthritis patients were obtained from SeraCare Life Sciences (Gaithersburg, MD). […] 3 days later, supernatants were collected and analyzed by MSD multi-spot assay or ELISA for IL-17A, IL-22 and IL-13 production.

[1] = test system: IL-23-induced psoriasis-like ear skin inflammation in C57BL/6N mice; assay: IL-23-induced skin inflammation in mice; type: in vivo, mouse; details: for reduction of IL-17A-producing total CD3+ T cells / reduction of IL-17A-producing γδ+ T cells: 30 mg/kg BID oral
RORα = target: T1, RORα (Homo sapiens, UniProt P35398); assay: 1-hybrid reporter assay in HEK293T cells (GAL4-RORα); type: cell-based; details: HEK-293T
T1 construct: NP_599022, aa 305–556; expressed in transfected cells; host or cells: HEK293T
Description: The reporter assay was performed by transient co-transfection of HEK293T cells with pCMV-BD (Stratagene #211342) containing the GAL4 DNA-binding domain fused with full-length human RORγt (Genbank accession no. NP_001001523, aa 1–497), pFR-Luc reporter and pRL-CMV reporter (Promega #E2261) plus Carrier DNA (Clontech # 630440) using PEI solution (Sigma Aldrich cat# 40872-7) in a 96-well plate. […] Medium was removed and cells were lysed with Passive Lysis Buffer (Promega). Firefly luciferase buffer was then added and firefly luciferase luminescence was read on BMG LUMIstar OPTIMA luminescence plate reader. One second later, renilla luciferase buffer was then added and renilla luciferase luminescence was read to measure cell viability. For RORα and RORβ activity, similar assays were performed except cells were transfected with pCMV-BD-RORα (Genbank accession no. NP_599022, aa 305–556) or pCMV-BD-RORβ (Genbank accession no. NP_008845, aa 201–459).

T1 sequence (P35398 272-523): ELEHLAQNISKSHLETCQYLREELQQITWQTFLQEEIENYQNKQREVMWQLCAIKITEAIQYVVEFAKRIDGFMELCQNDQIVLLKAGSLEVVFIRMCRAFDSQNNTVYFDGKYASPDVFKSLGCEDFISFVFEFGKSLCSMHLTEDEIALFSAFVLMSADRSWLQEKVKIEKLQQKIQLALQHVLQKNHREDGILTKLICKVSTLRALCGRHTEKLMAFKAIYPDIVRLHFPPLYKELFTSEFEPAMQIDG

Question: What does the source list for COc1nc2ccc([C@@](O)(c3ccc(C)nc3C)c3cnnn3C)cc2c(Cl)c1Cc1ccc(C(F)(F)F)cc1 [JNJ-54271074]?
Answer: accumulated IFNγ production (human CCR6+ T cells): minimal effect; IFNγ+ cells (human CCR6+ T cells; 1 μM): slightly increased; IL-17A+/IFNγ+ and IL-17A+ cells (human CCR6+ T cells; 1 μM): decreased; IC50 (PBMC from RA patients; Homo sapiens, PBMC, 72 h, read-out: IC50, IL-17A production from PBMC from RA subjects): 5 ± 1.2 nM; efficacy, inhibition of IL-17A production (PBMC from RA patients; RA PBMC): 88%; efficacy, inhibition of IL-22 production (PBMC from RA patients; RA PBMC): 44%; skin inflammation (total skin histology scores, abscesses, acanthosis) ([1]; 3, 10, 30 and 60 mg/kg BID oral, 7 days, dose-dependent): decreased skin inflammation; ear mRNA expression of IL-17A, IL-22 and TNFα ([1]; 30 and 60 mg/kg, did not reach statistical significance): suppressed; reduction of IL-17A-producing total CD3+ T cells ([1]; DLNs): 71%; reduction of IL-17A-producing γδ+ T cells ([1]; DLNs): 43%; FOXP3+ CD4+ T cells populations, vehicle vs compound treated groups ([1]; ear skin and DLNs, 30 mg/kg BID): very similar; reduction of IL-17A-producing total CD3+ T cells ([1]; ear skin): 40%; reduction of IL-17A-producing γδ+ T cells ([1]; ear skin): 60%; ear mRNA expression of IL-17F, IFNγ and IL-6 ([1]; oral BID, 7 days): significantly inhibited; IC50 (RORα): 4000 nM
